The data set has as its target T1, RIG-I (Homo sapiens, UniProt O95786).
T1 construct: HEK293 cells overexpressing either the full length RIG-I; host or cells: HEK293; HCT116 also for the qRT-PCR validation
T1 sequence (O95786 1-925): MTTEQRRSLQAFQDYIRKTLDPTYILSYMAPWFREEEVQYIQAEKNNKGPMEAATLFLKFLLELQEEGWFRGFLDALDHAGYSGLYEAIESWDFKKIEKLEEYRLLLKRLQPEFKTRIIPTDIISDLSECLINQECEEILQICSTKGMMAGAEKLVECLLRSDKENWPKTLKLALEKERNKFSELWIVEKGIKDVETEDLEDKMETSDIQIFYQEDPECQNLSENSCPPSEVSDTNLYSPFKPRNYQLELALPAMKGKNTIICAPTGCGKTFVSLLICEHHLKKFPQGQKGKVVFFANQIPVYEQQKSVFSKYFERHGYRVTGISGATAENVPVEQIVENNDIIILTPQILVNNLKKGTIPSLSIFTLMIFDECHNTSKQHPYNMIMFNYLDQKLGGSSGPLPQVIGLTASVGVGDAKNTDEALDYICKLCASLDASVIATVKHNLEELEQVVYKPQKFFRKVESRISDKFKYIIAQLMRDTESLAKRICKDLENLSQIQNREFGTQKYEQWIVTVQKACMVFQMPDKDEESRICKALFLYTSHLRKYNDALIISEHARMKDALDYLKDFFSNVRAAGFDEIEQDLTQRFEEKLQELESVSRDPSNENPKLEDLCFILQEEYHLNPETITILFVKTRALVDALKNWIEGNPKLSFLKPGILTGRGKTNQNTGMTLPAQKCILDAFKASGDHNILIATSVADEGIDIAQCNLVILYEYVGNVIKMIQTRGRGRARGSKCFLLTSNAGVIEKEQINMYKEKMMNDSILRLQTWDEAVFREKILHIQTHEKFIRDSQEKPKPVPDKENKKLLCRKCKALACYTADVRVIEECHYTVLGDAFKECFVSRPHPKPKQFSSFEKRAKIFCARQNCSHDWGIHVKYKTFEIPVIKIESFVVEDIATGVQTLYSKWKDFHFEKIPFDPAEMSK
As to the kind of experiment: RNA sequencing of RNA bound to RIG-I (RIG-I pulldown) after IR. The class given is binding. On the procedure: Technically, identification of RNAs was performed as follows: […] Cambridge, Mass.). Twenty-four hours post-transfection, cells were either mock-irradiated or exposed to IR (6 Gy). […] Cell lysates were separated from cell debris by centrifugation at 12,000 rpm at 4° C. Protein concentration was measured by BCA kit. Anti-FLAG monoclonal antibody was added to the cell lysate at a 1:500 dilution, and incubated overnight at 4° C. Protein G sepharose beads were added to the lysates and incubated for at least 2 hours at 4° C. […] Proteinase K was added to the eluates and incubated at 50° C. for 45 minutes. Trizol reagent was then added to the solution, and RNA bound to RIG-I was purified following manufacturer's protocol. RNA quality was analyzed using an Agilent Bioanalyzer 2100 with Pico Series II cartridges. RNA yield was measured using the Qubit RNA Broad Range kit. For qRT-PCR validation experiments of RIG-I pulled down RNA, UV cross-linking (2 doses at 150 mJ/cm^2) was performed on HEK293 and HCT116 overexpressing RIG-I prior to cell lysis. The same protocol for pulldown and RNA purification experiments was performed as described above. We eluted total RNA and RNA bound to RIG-I from RIG-I over-expressing HEK293 cells 48 hours post IR (6 Gy). […] Libraries were sequenced on Illumina HiSeq2500 instrument to generate 50 bp pair-ended reads. Sequencing files in FastQ format were processed using AlienTrimmer (Criscuolo A and Brisse S, 2013) to remove adapter sequences and to trim low quality reads with Phred quality score <20. The preprocessed reads were aligned to the human reference genome (Ensembl GRCh38) using Spliced Transcripts Alignment to a Reference (STAR) software (Dobin et al., 2013). The featureCounts tool from Bioconductor package RSubread was used to summarize and quantify the abundances of genomic features of the mapped reads (Liao et al., 2013). Mapped reads were annotated using human GENCODE version 20 (Harrow et al., 2012) and were summarized to 35 gene/transcript and non-coding RNA biotypes annotated in GENCODE/Ensemble databases. RepEnrich program (Criscione et al., 2014) was used to identify and quantify the repetitive elements. The program uses Bowtie (Langmead et al., 2009) to align the reads to the human reference genome (Ensembl GRCh38) and human repetitive element pseudogenomes built upon […] annotation library hg38.fa.out.gz (available at […].org on the World Wide Web). The mapped reads were summarized by repetitive element subfamilies, families and classes (Tables 3, 4 and 5). […]

Setting [1] is: Top 50 RIG-I binding RNAs, RepeatMasker annotations, RIG-I pulldown vs total RNA, HEK293, 48 h post IR (6 Gy).

In the case of U2: snRNA, SEQ ID NO:21, for the setting “All mapped reads identified using RepeatMasker”, the log2FC is recorded as 5.983. Further, the “Mean log2FC” value (RepeatMasker annotations, mean of set 1 and set 2) turned out to be 3.948. For the same substance, under setting [1], the “log2FC (set 1)” value turned out to be 5.983 and the “log2FC (set 2)” value came to 1.914.
